Source: patent US6710045B2, “Heterocyclic fluoroalkenyl thioethers and the use thereof as pesticides (IV)” (priority 2003, dated 2004)

Experiments:
[1] = logP determination by HPLC (EEC Directive 79/831 Annex V.A8); format: physicochemical; details: for chromatographic logP: pH 2.3, HPLC gradient method, acetonitrile/0.1% aqueous phosphoric acid
Method: The logP values were determined in accordance with EEC Directive 79/831 Annex V.A8 by HPLC (gradient method, acetonitrile/0.1% aqueous phosphoric acid).

[2] = system: larvae of the mustard beetle (Phaedon cochleariae); assay: Phaedon larvae test (dipped cabbage leaves); details: active compound concentration 0.1%; after 7 days
[3] = system: Meloidogyne incognita egg/larvae; assay: Meloidogyne test (gall formation on lettuce roots); format: in vivo; details: active compound concentration 20 ppm; after 14 days
Method: Containers are filled with sand, solution of active compound, Meloidogyne incognita egg/larvae suspension and lettuce seeds. The lettuce seeds germinate and the plants develop. On the roots, galls are formed.
After the desired period of time, the nematicidal action is determined in % using gall formation as a measure. 100% means that no galls were found; 0% means that the number of galls on the treated plants corresponds to that of the untreated control.

chromatographic logP [1]	logP (pH 2) [1]	SMILES	kill [2]	nematicidal action (activity) using gall formation as a measure [3]
4.83		FC(F)=C(F)CCCCSc1nc2ccccc2s1 [Example 1, 2-(6,6,5-trifluorohex-5-enylthio)-benzothiazole]	100%	100%
3.36		O=S(=O)(CCCCC(F)=C(F)F)c1nc2ccccc2s1 [Example 3, 2-(6,6,5-trifluorohex-5-enylsulphonyl)-benzothiazole]		90%
	4.37	FC(F)=C(F)CCCCSc1ccc(-c2ccccc2Cl)nn1 [Example 16]		
	5.62	FC(F)=C(F)CCCCSc1nc2cc(SC(F)(F)F)ccc2o1 [Example 17]		
